For one test, the target named is HLA-A*0201 (Homo sapiens, UniProt P04439, D140Y/D185E/D98H/E176V/E277Q/G131W/G231S/I119V/I121R/I166T/I218V/L300P/L318F/N151K/N90K/P208A/P217A/Q86G/Q94H/R138H/R169H/T345S). Kind of test: UV-ligand exchange with ELISA of stabilized MHC complexes. Format: binding. The note with it: class symbol. The text has this:
Candidate peptides for the vaccines according to the present invention were further tested for immunogenicity by in vitro priming assays. The individual peptide-MHC complexes required for these assays were produced by UV-ligand exchange, where a UV-sensitive peptide is cleaved upon UV-irradiation, and exchanged with the peptide of interest as analyzed. Only peptide candidates that can effectively bind and stabilize the peptide-receptive MHC molecules prevent dissociation of the MHC complexes. To determine the yield of the exchange reaction, an ELISA was performed based on the detection of the light chain (β2m) of stabilized MHC complexes. The assay was performed as generally described in Rodenko et al. (Rodenko B, Toebes M, Hadrup S R, van Esch W J, Molenaar A M, Schumacher T N, Ovaa H. Generation of peptide-MHC class I complexes through UV-mediated ligand exchange. Nat Protoc. 2006; 1(3):1120-32.).
96 well MAXISorp plates (NUNC) were coated over night with 2 ug/ml streptavidin in PBS at room temperature, washed 4× and blocked for 30 min at 37° C. in 2% BSA containing blocking buffer. Refolded HLA-A*0201/MLA-001 monomers served as standards, covering the range of 8-500 ng/ml. Peptide-MHC monomers of the UV-exchange reaction were diluted 100 fold in blocking buffer. Samples were incubated for 1 h at 37° C., washed four times, incubated with 2 ug/ml HRP conjugated anti-β2m for 1 h at 37° C., washed again and detected with TMB solution that is stopped with […]. Absorption was measured at 450 nm.
A general note: An ELISA detects its analyte on a solid surface through an enzyme-linked reagent.

A further test has as its system CD8+ T cells. The test is described as follows: In vitro T-cell priming assay (aAPCs loaded with peptide/MHC and anti-CD28, pMHC multimer readout). Format: cell-based, human. The note with it: for Wells: positive wells. The text has this:
In order to obtain information regarding the immunogenicity of the TUMAPs of the present invention, we performed investigations using an in vitro T-cell priming assay based on repeated stimulations of CD8+ T cells with artificial antigen presenting cells (aAPCs) loaded with peptide/MHC complexes and anti-CD28 antibody.
In order to perform in vitro stimulations by artificial antigen presenting cells loaded with peptide-MHC complex (pMHC) and anti-CD28 antibody, we first isolated CD8+ T cells from fresh HLA-A*02 leukapheresis products via positive selection using CD8 microbeads (Miltenyi Biotec, Bergisch-Gladbach, Germany) of healthy donors obtained from the Transfusion Medicine Tuebingen, Germany, after informed consent.
Isolated CD8+ lymphocytes or PBMCs were incubated until use in T-cell medium (TCM) consisting of RPMI-Glutamax (Invitrogen, Karlsruhe, Germany) supplemented with 10% heat inactivated human AB serum (PAN-Biotech, Aidenbach, Germany), 100 U/ml Penicillin/100 μg/ml Streptomycin (Cambrex, Cologne, Germany), 1 mM sodium pyruvate (CC Pro, Oberdorla, Germany), 20 μg/ml Gentamycin (Cambrex). 2.5 ng/ml IL-7 (PromoCell, Heidelberg, Germany) and 10 U/ml IL-2 (Novartis Pharma, Nurnberg, Germany) were also added to the TCM at this step.
Generation of pMHC/anti-CD28 coated beads, T-cell stimulations and readout was performed in a highly defined in vitro system using four different pMHC molecules per stimulation condition and 8 different pMHC molecules per readout condition.
All pMHC complexes used for aAPC loading and cytometric readout were derived from UV-induced MHC ligand exchange (Rodenko et al., 2006) with minor modifications. In order to determine the amount of pMHC monomer obtained by exchange we performed streptavidin-based sandwich ELISAs according to (Rodenko et al., 2006).
The purified co-stimulatory mouse IgG2a anti human CD28 Ab 9.3 (Jung et al., 1987) was chemically biotinylated using Sulfo-N-hydroxysuccinimidobiotin as recommended by the manufacturer (Perbio, Bonn, Germany). Beads used were 5.6 μm diameter streptavidin coated polystyrene particles (Bangs Laboratories, Ill., USA).
pMHC used for positive and negative control stimulations were A*0201/MLA-001 (peptide […] from modified Melan-A/MART-1) and A*0201/DDX5-001 ([…] from DDX5), respectively.
800.000 beads/200 μl were coated in 96-well plates in the presence of 4×12.5 ng different biotin-pMHC, washed and 600 ng biotin anti-CD28 were added subsequently in a volume of 200 μl. Stimulations were initiated in 96-well plates by co-incubating 1×10^6 CD8+ T cells with 2×10^5 washed coated beads in 200 μl TCM supplemented with 5 ng/ml IL-12 (PromoCell) for 3-4 days at 37° C. Half of the medium was then exchanged by fresh TCM supplemented with 80 U/ml IL-2 and incubating was continued for 3-4 days at 37° C. This stimulation cycle was performed for a total of three times. For the pMHC multimer readout using 8 different pMHC molecules per condition, a two-dimensional combinatorial coding approach was used as previously described (Andersen et al., 2012) with minor modifications encompassing coupling to 5 different fluorochromes. Finally, multimeric analyses were performed by staining the cells with Live/dead near IR dye (Invitrogen, Karlsruhe, Germany), CD8-FITC antibody clone SK1 (BD, Heidelberg, Germany) and fluorescent pMHC multimers. For analysis, a BD LSRII SORP cytometer equipped with appropriate lasers and filters was used. Peptide specific cells were calculated as percentage of total CD8+ cells. Evaluation of multimeric analysis was done using the FlowJo software (Tree Star, Oreg., USA). In vitro priming of specific multimer+CD8+ lymphocytes was detected by comparing to negative control stimulations.

[1] abbreviates: in vitro immunogenicity, trifluoro-acetate salts of the peptides.
Where [2] appears, read: in vitro immunogenicity, responding healthy donors, trifluoro-acetate salts of the peptides.

Like-named read-outs stand apart in the source and are kept apart here.

“KLLTEVHAA (listed as Homo sapiens) [SEQ ID NO 72]”: the Exchange yield entry with HLA-A*0201 was “+++ (50%-70%, +++)”.

“KVLEILHRV (listed as Homo sapiens) [SEQ ID NO 65]”: in the test with HLA-A*0201, the Exchange yield entry was “+++ (50%-70%, +++)”. Same read-out and setting: to “RVLPPSALQSV (listed as Homo sapiens) [SEQ ID NO 87]” belongs “+++ (50%-70%, +++)”; to “TLSSIKVEV (listed as Homo sapiens) [SEQ ID NO 5]”, “+++ (50%-70%, +++)”; to “SLVAVELEKV (listed as Homo sapiens) [SEQ ID NO 90]”, “+++ (50%-70%, +++)”. Same read-out and setting: to “NLIEKSIYL (listed as Homo sapiens) [SEQ ID NO 4]” belongs “++ (20%-49% = ++)”; to “YLPHAPPFA (listed as Homo sapiens) [SEQ ID NO 53]”, “+++ (50%-70%, +++)”; to “FLIPIYHQV (listed as Homo sapiens) [SEQ ID NO 22]”, “+++ (50%-70%, +++)”. Consider “SISDVIAQV (listed as Homo sapiens) [SEQ ID NO 28]”, for which the Exchange yield entry in the test with HLA-A*0201 is reported as “+++ (50%-70%, +++)”. On to “VLSVVEVTL (listed as Homo sapiens) [SEQ ID NO 10]”, for which the Exchange yield entry in the test with HLA-A*0201 is given as “++++ (>70 = ++++)”.

Regarding “ALFPHLLQPV (listed as Homo sapiens) [SEQ ID NO 43]”, the Exchange yield entry with HLA-A*0201 was “+++ (50%-70%, +++)”. Same read-out and setting: then “YVYQNNIYL (listed as Homo sapiens) [SEQ ID NO 68]”, with “++ (20%-49% = ++)”; and “VLAPLFVYL (listed as Homo sapiens) [SEQ ID NO 37]”, with “+++ (50%-70%, +++)”. For “ALLRTVVSV (listed as Homo sapiens) [SEQ ID NO 33]”, in the test with HLA-A*0201, the Exchange yield entry is reported as “++++ (>70 = ++++)”. On the same count and under the same terms, then “RLLDSVSRL (listed as Homo sapiens) [SEQ ID NO 39]”, with “+++ (50%-70%, +++)”; and “ILFEINPKL (listed as Homo sapiens) [SEQ ID NO 1]”, with “++++ (>70 = ++++)”. With “ALDENLHQL (listed as Homo sapiens) [SEQ ID NO 3]”, in the test with HLA-A*0201, the Exchange yield result is on record as “++ (20%-49% = ++)”. Same read-out and setting: to “SLYKGLLSV (listed as Homo sapiens) [SEQ ID NO 56]” belongs “++ (20%-49% = ++)”. “44 (NLLAEIHGV; listed as Homo sapiens) [compound 44]”: the Wells result in the test with CD8+ T cells (setting [1]) is “+ (<20% = +)”. The Donors result in the test on CD8+ T cells (setting [2]) is given as “++ (20%-49% = ++)”. As for “46 (TLTNIIHNL; listed as Homo sapiens) [compound 46]”, the Wells entry with CD8+ T cells (setting [1]) is “+ (<20% = +)”. Also, the Donors result with CD8+ T cells (setting [2]) is “+++ (50%-70%, +++)”. As to “60 (VVDKTLLLV; listed as Homo sapiens) [compound 60]”, the Donors is 100% with CD8+ T cells and “++++ (>70 = ++++)” with CD8+ T cells (setting [2]). In addition, the Wells entry in the test with CD8+ T cells (setting [1]) is “+++ (50%-70%, +++)”.

As for “42 (SLWGGDVVL; listed as Homo sapiens) [compound 42]”, the Donors was 100% in the test with CD8+ T cells and “++++ (>70 = ++++)” in the test with CD8+ T cells (setting [2]). Moreover, the Wells entry with CD8+ T cells (setting [1]) is “++ (20%-49% = ++)”. For “69 (AMSSKFFLV; listed as Homo sapiens) [compound 69]”, the Wells result with CD8+ T cells (setting [1]) is on record as “++ (20%-49% = ++)”. Further, the Donors entry in the test on CD8+ T cells (setting [2]) is on record as “+++ (50%-70%, +++)”. For “67 (ILQDRLNQV; listed as Homo sapiens) [compound 67]”, in that order: “+ (<20% = +)” and “++ (20%-49% = ++)”. In the same order, the values of “16 (TVIGFLLPFA; listed as Homo sapiens) [compound 16]” are “+ (<20% = +)” and “++ (20%-49% = ++)”. For “38 (SLHFLILYV; listed as Homo sapiens) [compound 38]”, in that order: “+ (<20% = +)” and “++ (20%-49% = ++)”. “30 (KIYNEFISV; listed as Homo sapiens) [compound 30]”: the Wells result in the test on CD8+ T cells (setting [1]) is given as “+ (<20% = +)”. Besides, the Donors entry in the test on CD8+ T cells (setting [2]) is on record as “++ (20%-49% = ++)”.

Turning to “4 (NLIEKSIYL; listed as Homo sapiens) [compound 4]”, the Wells entry in the test with CD8+ T cells (setting [1]) is on record as “+ (<20% = +)”. Besides, the Donors entry with CD8+ T cells (setting [2]) is on record as “++ (20%-49% = ++)”. With “59 (ILVSWLPRL; listed as Homo sapiens) [compound 59]”, in the test on CD8+ T cells (setting [1]), the Wells result was “+ (<20% = +)”. Also, the Donors entry in the test on CD8+ T cells (setting [2]) is recorded as “+++ (50%-70%, +++)”. As for “3 (ALDENLHQL; listed as Homo sapiens) [compound 3]”, the Wells entry in the test on CD8+ T cells (setting [1]) is “+ (<20% = +)”. The Donors entry in the test with CD8+ T cells (setting [2]) was “++ (20%-49% = ++)”. In the same order, the values of “86 (AMATESILHFA; listed as Homo sapiens) [compound 86]” are “+ (<20% = +)” and “++ (20%-49% = ++)”. For “24 (FLVDGSWSV; listed as Homo sapiens) [compound 24]”, in the test with CD8+ T cells (setting [1]), the Wells result is recorded as “+ (<20% = +)”. For the same substance, the Donors result in the test with CD8+ T cells (setting [2]) is “++ (20%-49% = ++)”. In the same order, the values of “48 (GLIEIISNA; listed as Homo sapiens) [compound 48]” are “+ (<20% = +)” and “+ (<20% = +)”. For the substance “31 (AIDGNNHEV; listed as Homo sapiens) [compound 31]”, the Wells entry in the test on CD8+ T cells (setting [1]) is “+ (<20% = +)”. Moreover, the Donors result in the test with CD8+ T cells (setting [2]) is “+++ (50%-70%, +++)”. Regarding “62 (ILFPDIIARA; listed as Homo sapiens) [compound 62]”, the Wells entry in the test with CD8+ T cells (setting [1]) was “++ (20%-49% = ++)”. Also, the Donors result with CD8+ T cells (setting [2]) is on record as “++++ (>70 = ++++)”. For “35 (VLFPNLKTV; listed as Homo sapiens) [compound 35]”, the Wells entry with CD8+ T cells (setting [1]) is “+ (<20% = +)”. In addition, the Donors entry with CD8+ T cells (setting [2]) is recorded as “++ (20%-49% = ++)”. Consider “61 (TLISRLPAV; listed as Homo sapiens) [compound 61]”, for which the Wells result with CD8+ T cells (setting [1]) is on record as “+ (<20% = +)”. Also, the Donors entry in the test with CD8+ T cells (setting [2]) is given as “+++ (50%-70%, +++)”. On to “66 (KIQEILTQV; listed as Homo sapiens) [compound 66]”, for which, in the test with CD8+ T cells (setting [1]), the Wells entry is on record as “+ (<20% = +)”. Moreover, the Donors result with CD8+ T cells (setting [2]) is “+++ (50%-70%, +++)”. With “80 (SLFGNSGILENV; listed as Homo sapiens) [compound 80]”, the Wells entry in the test with CD8+ T cells (setting [1]) is “+ (<20% = +)”. The Donors entry with CD8+ T cells (setting [2]) is on record as “++ (20%-49% = ++)”.

In the case of “71 (KLLEYIEEI; listed as Homo sapiens) [compound 71]”, in the test with CD8+ T cells (setting [1]), the Wells entry is “+ (<20% = +)”. Besides, in the test on CD8+ T cells (setting [2]), the Donors entry was “+++ (50%-70%, +++)”.

Source of the values: patent publication US10487116B2, “Immunotherapy against several tumors, such as lung cancer, including NSCLC” (IMMATICS BIOTECHNOLOGIES GMBH, priority 2013, dated 2019).
